# Experimental data: PMC10653547, “Synergistic effect of two antimicrobial peptides, BP203 and MAP-0403 J-2 with conventional antibiotics against colistin-resistant Escherichia coli and Klebsiella pneumoniae clinical isolates” (PLOS ONE, 2023)
# Legend:
# [1] = system: colistin-resistant K. pneumoniae clinical isolates; test: Checkerboard assay for synergy testing; type: cell-based, Klebsiella pneumoniae
# Experimental: (§1) The synergistic activities of various two-antimicrobial combinations against colistin-resistant E. coli and K. pneumoniae isolates were evaluated using the checkerboard assay, which was performed in 96-well plates. […] Two-fold serial dilutions of peptides and antibiotics were independently prepared in CAMHB. Afterward, a mixture of different concentrations of the antibiotics and peptides was added to the wells of the microplates. Antibiotics and peptides were also dispended alone in the first row and the first column, respectively. Bacterial inoculum was added to the 96-well plate to achieve a final concentration of 5 × 10^5 CFU/mL. Then, plates were incubated at 37 °C for 20–24 h. MICs were recorded as the minimum concentration of antimicrobial agents without bacterial growth. The interaction between the antimicrobials was determined by calculating the fractional inhibitory concentration index (FICI) according to the formula: FICI = FIC(drug A) + FIC(drug B), where FIC = the MIC of the drug when in the combination/MIC of drug tested individually.
# [2] = system: colistin-resistant K. pneumoniae clinical isolates; test: Disk diffusion antimicrobial susceptibility testing (CLSI); type: cell-based, Klebsiella pneumoniae; as to Interpreted results of disk diffusion: key: R: resistant; I: intermediate; SDD: susceptible-dose dependent; S: sensitive
# Experimental: (§2) Ten non-duplicate clinical isolates of colistin-resistant E. coli (EC) and ten non-duplicate clinical isolates of colistin-resistant K. pneumoniae (KP) were obtained from the bacterial repository of the Division of Infectious Diseases and Tropical Medicine, Department of Medicine, Faculty of Medicine Siriraj Hospital, Mahidol University. The species identification was conducted through standard biochemical tests. Antimicrobial susceptibility testing was carried out using the disk diffusion method following CLSI guidelines. Additionally, the assessment of colistin resistance in all isolates was performed by broth microdilution following CLSI recommendations. […] The amino acid sequences of BP203 and MAP-0403 J-2 were retrieved from previous studies. These peptides are BP100 and MAP-0403 analogs, respectively. […] Antibiotic disks and defibrinated sheep blood were obtained from Oxoid (Basingstoke, UK). All culture media were purchased from Becton Dickinson (Frankin Lakes, NJ, USA). All chemicals were obtained from Sigma-Aldrich (St. Louis, MO, USA).
# [3] = system: colistin-resistant E. coli clinical isolates; test: Checkerboard assay for synergy testing; type: cell-based, Escherichia coli
# Experimental: as §1
# [4] = system: colistin-resistant E. coli clinical isolates; test: Disk diffusion antimicrobial susceptibility testing (CLSI); type: cell-based, Escherichia coli
# Experimental: as §2
# [5] = isolate KP-01, checkerboard Chloramphenicol+BP203
# [6] = isolate KP-01, checkerboard Chloramphenicol+MAP-0403 J-2
# [7] = isolate KP-02, checkerboard Chloramphenicol+BP203
# [8] = isolate KP-02, checkerboard Chloramphenicol+MAP-0403 J-2
# [9] = isolate KP-03, checkerboard Chloramphenicol+BP203
# [10] = isolate KP-03, checkerboard Chloramphenicol+MAP-0403 J-2
# [11] = isolate KP-04, checkerboard Chloramphenicol+BP203
# [12] = isolate KP-04, checkerboard Chloramphenicol+MAP-0403 J-2
# [13] = isolate KP-05, checkerboard Chloramphenicol+BP203
# [14] = isolate KP-05, checkerboard Chloramphenicol+MAP-0403 J-2
# [15] = isolate KP-06, checkerboard Chloramphenicol+BP203
# [16] = isolate KP-06, checkerboard Chloramphenicol+MAP-0403 J-2
# [17] = isolate KP-07, checkerboard Chloramphenicol+BP203
# [18] = isolate KP-07, checkerboard Chloramphenicol+MAP-0403 J-2
# [19] = isolate KP-08, checkerboard Chloramphenicol+BP203
# [20] = isolate KP-08, checkerboard Chloramphenicol+MAP-0403 J-2
# [21] = isolate KP-09, checkerboard Chloramphenicol+BP203
# [22] = isolate KP-09, checkerboard Chloramphenicol+MAP-0403 J-2
# [23] = isolate KP-10, checkerboard Chloramphenicol+BP203
# [24] = isolate KP-10, checkerboard Chloramphenicol+MAP-0403 J-2
# [25] = isolate EC-01, checkerboard Chloramphenicol+BP203
# [26] = isolate EC-01, checkerboard Chloramphenicol+MAP-0403 J-2
# [27] = isolate EC-02, checkerboard Chloramphenicol+BP203
# [28] = isolate EC-02, checkerboard Chloramphenicol+MAP-0403 J-2
# [29] = isolate EC-03, checkerboard Chloramphenicol+BP203
# [30] = isolate EC-03, checkerboard Chloramphenicol+MAP-0403 J-2
# [31] = isolate EC-04, checkerboard Chloramphenicol+BP203
# [32] = isolate EC-05, checkerboard Chloramphenicol+BP203
# [33] = isolate EC-05, checkerboard Chloramphenicol+MAP-0403 J-2
# [34] = isolate EC-06, checkerboard Chloramphenicol+BP203
# [35] = isolate EC-06, checkerboard Chloramphenicol+MAP-0403 J-2
# [36] = isolate EC-07, checkerboard Chloramphenicol+BP203
# [37] = isolate EC-07, checkerboard Chloramphenicol+MAP-0403 J-2
# [38] = isolate EC-08, checkerboard Chloramphenicol+BP203
# [39] = isolate EC-08, checkerboard Chloramphenicol+MAP-0403 J-2
# [40] = isolate EC-09, checkerboard Chloramphenicol+BP203
# [41] = isolate EC-09, checkerboard Chloramphenicol+MAP-0403 J-2
# [42] = isolate EC-10, checkerboard Chloramphenicol+BP203
# [43] = isolate EC-10, checkerboard Chloramphenicol+MAP-0403 J-2
compound,measurement,setting,value
"O=C(N[C@H](CO)[C@H](O)c1ccc([N+](=O)[O-])cc1)C(Cl)Cl [C, chloramphenicol]",MIC alone,[1]; [5],512 µg/mL
same,MIC combination,[1]; [5],128 µg/mL
same,MIC alone,[1]; [6],1020 µg/mL
same,MIC combination,[1]; [6],256 µg/mL
same,MIC alone,[1]; [7],512 µg/mL
same,MIC combination,[1]; [7],128 µg/mL
same,MIC alone,[1]; [8],512 µg/mL
same,MIC combination,[1]; [8],128 µg/mL
same,MIC alone,[1]; [9],8 µg/mL
same,MIC combination,[1]; [9],2 µg/mL
same,MIC alone,[1]; [10],8 µg/mL
same,MIC combination,[1]; [10],2 µg/mL
same,MIC alone,[1]; [11],8 µg/mL
same,MIC combination,[1]; [11],4 µg/mL
same,MIC alone,[1]; [12],8 µg/mL
same,MIC combination,[1]; [12],2 µg/mL
same,MIC alone,[1]; [13],4 µg/mL
same,MIC combination,[1]; [13],2 µg/mL
same,MIC alone,[1]; [14],1020 µg/mL
same,MIC combination,[1]; [14],256 µg/mL
same,MIC alone,[1]; [15],512 µg/mL
same,MIC combination,[1]; [15],128 µg/mL
same,MIC alone,[1]; [16],32 µg/mL
same,MIC combination,[1]; [16],8 µg/mL
same,MIC alone,[1]; [17],512 µg/mL
same,MIC combination,[1]; [17],128 µg/mL
same,MIC alone,[1]; [18],8 µg/mL
same,MIC combination,[1]; [18],4 µg/mL
same,MIC alone,[1]; [19],4 µg/mL
same,MIC combination,[1]; [19],1 µg/mL
same,MIC alone,[1]; [20],8 µg/mL
same,MIC combination,[1]; [20],4 µg/mL
same,MIC alone,[1]; [21],32 µg/mL
same,MIC combination,[1]; [21],4 µg/mL
same,MIC alone,[1]; [22],32 µg/mL
same,MIC combination,[1]; [22],16 µg/mL
same,MIC alone,[1]; [23],64 µg/mL
same,MIC combination,[1]; [23],8 µg/mL
same,MIC alone,[1]; [24],64 µg/mL
same,MIC combination,[1]; [24],4 µg/mL
same,Interpreted results of disk diffusion,[2]; KP-01,R
same,Interpreted results of disk diffusion,[2]; KP-02,R
same,Interpreted results of disk diffusion,[2]; KP-03,S
same,Interpreted results of disk diffusion,[2]; KP-04,S
same,Interpreted results of disk diffusion,[2]; KP-05,S
same,Interpreted results of disk diffusion,[2]; KP-06,R
same,Interpreted results of disk diffusion,[2]; KP-07,I
same,Interpreted results of disk diffusion,[2]; KP-08,S
same,Interpreted results of disk diffusion,[2]; KP-09,I
same,Interpreted results of disk diffusion,[2]; KP-10,R
same,%Resistance,"[2]; ten K. pneumoniae isolates, disk diffusion",40%
same,MIC alone,[3]; [25],128 µg/mL
same,MIC combination,[3]; [25],1 µg/mL
same,MIC alone,[3]; [26],128 µg/mL
same,MIC combination,[3]; [26],64 µg/mL
same,MIC alone,[3]; [27],64 µg/mL
same,MIC combination,[3]; [27],32 µg/mL
same,MIC alone,[3]; [28],64 µg/mL
same,MIC combination,[3]; [28],32 µg/mL
same,MIC alone,[3]; [29],64 µg/mL
same,MIC combination,[3]; [29],32 µg/mL
same,MIC alone,[3]; [30],64 µg/mL
same,MIC combination,[3]; [30],16 µg/mL
same,MIC alone,[3]; [31],32 µg/mL
same,MIC combination,[3]; [31],1 µg/mL
same,MIC combination,"[3]; isolate EC-04, checkerboard Chloramphenicol+MAP-0403 J-2",128 µg/mL
same,MIC alone,[3]; [32],64 µg/mL
same,MIC combination,[3]; [32],32 µg/mL
same,MIC alone,[3]; [33],64 µg/mL
same,MIC combination,[3]; [33],32 µg/mL
same,MIC alone,[3]; [34],16 µg/mL
same,MIC combination,[3]; [34],4 µg/mL
same,MIC alone,[3]; [35],8 µg/mL
same,MIC combination,[3]; [35],4 µg/mL
same,MIC alone,[3]; [36],256 µg/mL
same,MIC combination,[3]; [36],64 µg/mL
same,MIC alone,[3]; [37],64 µg/mL
same,MIC combination,[3]; [37],32 µg/mL
same,MIC alone,[3]; [38],64 µg/mL
same,MIC combination,[3]; [38],32 µg/mL
same,MIC alone,[3]; [39],64 µg/mL
same,MIC combination,[3]; [39],16 µg/mL
same,MIC alone,[3]; [40],256 µg/mL
same,MIC combination,[3]; [40],64 µg/mL
same,MIC alone,[3]; [41],256 µg/mL
same,MIC combination,[3]; [41],64 µg/mL
same,MIC alone,[3]; [42],256 µg/mL
same,MIC combination,[3]; [42],32 µg/mL
same,MIC alone,[3]; [43],256 µg/mL
same,MIC combination,[3]; [43],64 µg/mL
same,Interpreted results of disk diffusion,[4]; EC-01,R
same,Interpreted results of disk diffusion,[4]; EC-02,R
same,Interpreted results of disk diffusion,[4]; EC-03,R
same,Interpreted results of disk diffusion,[4]; EC-04,R
same,Interpreted results of disk diffusion,[4]; EC-05,R
same,Interpreted results of disk diffusion,[4]; EC-06,S
same,Interpreted results of disk diffusion,[4]; EC-07,R
same,Interpreted results of disk diffusion,[4]; EC-08,R
same,Interpreted results of disk diffusion,[4]; EC-09,R
same,Interpreted results of disk diffusion,[4]; EC-10,R
same,%Resistance,"[4]; ten E. coli isolates, disk diffusion",90%
